Where a name gives a salt, the structure may show the parent alone. Bounds are passed on as bounds.

Format in all cases: biochemical
Assay [1] deals with T1, recombinant human MAO-A (monoamine oxidase-A) (Homo sapiens, UniProt P21397).
T1 construct: purchased Sigma-Aldrich
T1 sequence (P21397 1-527): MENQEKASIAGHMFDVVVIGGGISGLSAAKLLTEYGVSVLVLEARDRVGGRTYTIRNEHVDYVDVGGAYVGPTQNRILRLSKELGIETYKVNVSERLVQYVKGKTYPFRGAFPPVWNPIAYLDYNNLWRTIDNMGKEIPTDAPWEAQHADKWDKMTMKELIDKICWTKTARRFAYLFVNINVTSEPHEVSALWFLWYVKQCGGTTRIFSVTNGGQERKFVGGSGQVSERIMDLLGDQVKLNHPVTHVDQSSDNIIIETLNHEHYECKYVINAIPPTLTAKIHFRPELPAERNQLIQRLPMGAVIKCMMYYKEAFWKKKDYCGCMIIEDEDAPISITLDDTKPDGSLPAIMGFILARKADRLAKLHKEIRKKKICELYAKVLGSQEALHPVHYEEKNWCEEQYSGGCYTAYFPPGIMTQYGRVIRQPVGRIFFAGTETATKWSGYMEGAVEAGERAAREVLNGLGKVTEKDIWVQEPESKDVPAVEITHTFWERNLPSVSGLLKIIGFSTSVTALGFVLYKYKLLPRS
Description: Activity on recombinant human MAO-A, method similar to the VAP-1 assay. The note with it: substrate 0.5 mM tyramine; read-out: Inhibitory Activity (IC50, nM) MAO-A. In a few lines:
(§1)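 8-point, 1:3 dose-response, four-parameter logistic IC50 from reduction in fluorescence rate versus DMSO control. HRP/Amplex Red detection of H2O2 (ex 544, em 590 nm) after 30 min, 37 °C compound–enzyme preincubation in pH 7.4 phosphate buffer. MAO-A substrate: 0.5 mM tyramine; MAO-B: 1 mM benzylamine.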

The target in a further assay is T2, recombinant human VAP-1 (Homo sapiens, UniProt Q16853).
T2 construct: purchased R&D systems
T2 sequence (Q16853 1-763): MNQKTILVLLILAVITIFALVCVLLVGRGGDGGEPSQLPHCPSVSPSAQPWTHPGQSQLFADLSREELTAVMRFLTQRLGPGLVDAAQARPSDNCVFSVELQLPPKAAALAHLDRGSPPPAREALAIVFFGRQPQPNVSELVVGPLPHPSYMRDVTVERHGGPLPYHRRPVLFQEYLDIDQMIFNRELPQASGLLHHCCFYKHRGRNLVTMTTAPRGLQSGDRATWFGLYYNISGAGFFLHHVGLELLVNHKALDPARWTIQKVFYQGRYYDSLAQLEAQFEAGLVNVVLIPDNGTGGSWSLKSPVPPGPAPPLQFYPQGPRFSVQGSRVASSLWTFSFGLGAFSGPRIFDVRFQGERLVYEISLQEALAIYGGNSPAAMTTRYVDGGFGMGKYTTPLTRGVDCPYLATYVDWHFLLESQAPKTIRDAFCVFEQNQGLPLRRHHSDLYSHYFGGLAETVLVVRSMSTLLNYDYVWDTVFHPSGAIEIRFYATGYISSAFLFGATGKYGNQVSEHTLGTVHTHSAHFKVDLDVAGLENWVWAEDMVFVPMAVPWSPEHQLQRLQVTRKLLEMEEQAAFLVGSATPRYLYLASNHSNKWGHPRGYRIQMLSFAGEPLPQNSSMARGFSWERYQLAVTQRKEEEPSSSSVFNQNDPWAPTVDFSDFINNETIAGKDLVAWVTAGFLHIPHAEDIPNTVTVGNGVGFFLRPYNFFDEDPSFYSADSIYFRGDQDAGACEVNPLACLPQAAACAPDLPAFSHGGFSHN
As to the kind of experiment: Activity on recombinant human VAP-1, HRP-coupled Amplex Red hydrogen peroxide assay. The note with it: substrate 1 mM benzylamine; compound incubated with enzyme at 37° C. for 30 minutes; pH 7.4; read-out: Inhibitory Activity (IC50, nM) human VAP-1. In a few lines: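 Compounds were preincubated with purified enzyme in 50 mM sodium phosphate pH 7.4 at 37 °C for 30 min, then 200 uM Amplex Red, 1 mM benzylamine and 1 U/mL HRP were added. Resorufin fluorescence (ex 544/em 590 nm) was followed over 1-2 h; IC50 came from 4-parameter fits of signal-rate inhibition.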

Assay [2] addresses T3, recombinant human DAO (diamine oxidase) (Homo sapiens, UniProt P19801).
T3 construct: purchased R&D systems
T3 sequence (P19801 20-751): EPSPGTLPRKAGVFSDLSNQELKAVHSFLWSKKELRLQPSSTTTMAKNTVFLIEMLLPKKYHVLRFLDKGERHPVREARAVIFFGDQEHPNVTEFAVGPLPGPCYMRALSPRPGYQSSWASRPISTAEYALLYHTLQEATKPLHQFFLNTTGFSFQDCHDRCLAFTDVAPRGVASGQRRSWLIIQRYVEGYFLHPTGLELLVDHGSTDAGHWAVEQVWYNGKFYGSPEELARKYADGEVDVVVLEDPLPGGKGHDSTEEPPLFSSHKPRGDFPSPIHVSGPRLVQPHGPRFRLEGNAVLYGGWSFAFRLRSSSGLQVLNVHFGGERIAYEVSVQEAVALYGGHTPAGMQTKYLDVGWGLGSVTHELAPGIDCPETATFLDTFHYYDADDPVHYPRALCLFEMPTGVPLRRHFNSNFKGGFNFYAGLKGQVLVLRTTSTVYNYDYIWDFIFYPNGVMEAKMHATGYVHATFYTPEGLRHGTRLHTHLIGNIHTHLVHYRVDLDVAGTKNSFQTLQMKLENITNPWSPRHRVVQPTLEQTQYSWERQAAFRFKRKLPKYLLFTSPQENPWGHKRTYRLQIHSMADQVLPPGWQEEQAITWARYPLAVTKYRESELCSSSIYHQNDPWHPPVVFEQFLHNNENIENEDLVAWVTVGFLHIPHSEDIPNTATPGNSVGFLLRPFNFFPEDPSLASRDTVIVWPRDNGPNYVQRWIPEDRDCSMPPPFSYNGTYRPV
As to the kind of experiment: Activity on recombinant human DAO, method similar to the VAP-1 assay. The note with it: substrate 1 mM putrescine; read-out: Inhibitory Activity (IC50, nM) DAO. In a few lines:
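Inhibition of recombinant human diamine oxidase (DAO, R&D systems) was assessed by the same approach as the VAP-1 assay, using 1 mM putrescine as substrate. Hydrogen peroxide formed was detected through an HRP-coupled Amplex Red reaction yielding fluorescent resorufin, read at 544 nm excitation and 590 nm emission. IC50 values came from four-parameter logistic fitting in GraphPad Prism.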

The target in assay [3] is T4, recombinant human MAO-B (monoamine oxidase-B) (Homo sapiens, UniProt P27338).
T4 construct: purchased Sigma-Aldrich
T4 sequence (P27338 1-520): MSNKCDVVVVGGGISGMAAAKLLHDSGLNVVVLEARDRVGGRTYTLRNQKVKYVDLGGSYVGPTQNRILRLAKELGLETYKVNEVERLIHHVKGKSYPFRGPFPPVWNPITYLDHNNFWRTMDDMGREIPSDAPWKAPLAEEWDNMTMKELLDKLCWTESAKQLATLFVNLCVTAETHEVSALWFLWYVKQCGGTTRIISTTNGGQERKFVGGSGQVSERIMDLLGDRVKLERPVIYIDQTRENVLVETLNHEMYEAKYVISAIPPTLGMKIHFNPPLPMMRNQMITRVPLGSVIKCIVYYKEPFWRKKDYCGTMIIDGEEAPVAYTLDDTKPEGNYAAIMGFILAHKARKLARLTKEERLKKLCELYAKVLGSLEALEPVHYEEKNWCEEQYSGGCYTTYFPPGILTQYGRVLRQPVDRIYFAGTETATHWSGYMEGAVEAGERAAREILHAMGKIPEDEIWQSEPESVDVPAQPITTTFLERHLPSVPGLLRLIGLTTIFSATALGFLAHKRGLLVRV
Description: Activity on recombinant human MAO-B, method similar to the VAP-1 assay. The note with it: substrate 1 mM benzylamine; read-out: Inhibitory Activity (IC50, nM) MAO-B. In a few lines: as §1

Turning to `N#Cc1ccc(-c2ccc(Cn3cnn(C/C(=C/F)CN)c3=O)s2)cn1` [Example 50, 5-[5-(1-[(2E)-2-(aminomethyl)-3-fluoroprop-2-en-1-yl]-5-oxo-1,5-dihydro-4H-1,2,4-triazol-4-ylmethyl)thiophen-2-yl]pyridine-2-carbonitrile hydrochloride], the IC50 (usually the concentration at which inhibition is half-maximal) in assay [1] is more than 100000 nM; on recombinant human VAP-1, 0.5 nM; in assay [2] it was 360 nM; in assay [3], 3700 nM.

As to `CN(C)c1ccc(-c2ccc(Cn3cnn(C/C(=C/F)CN)c3=O)s2)cn1` [Example 42, 2-[(2E)-2-(aminomethyl)-3-fluoroprop-2-en-1-yl]-4-(5-[6-(dimethylamino)pyridin-3-yl]thiophen-2-ylmethyl)-2,4-dihydro-3H-1,2,4-triazol-3-one hydrochloride], the half-inhibitory concentration (IC50) was more than 100000 nM in assay [1], 0.7 nM on recombinant human VAP-1, 570 nM in assay [2] and 5100 nM in assay [3].

As for `CC(C)n1nccc1-c1ccc(Cn2cnn(C/C(=C/F)CN)c2=O)s1` [Example 161, 2-[(2E)-2-(aminomethyl)-3-fluoroprop-2-en-1-yl]-4-({5-[1-(propan-2-yl)-1H-pyrazol-5-yl]thiophen-2-yl}methyl)-2,4-dihydro-3H-1,2,4-triazol-3-one], the IC50 was more than 100000 nM in assay [1], 3.7 nM at recombinant human VAP-1, 4300 nM in assay [2] and 15 nM in assay [3].

`CC1(C)Oc2ccc(-c3ccc(Cn4cnn(C/C(=C/F)CN)c4=O)s3)cc2NC1=O` [Example 98, 6-[5-[[1-[(E)-2-(aminomethyl)-3-fluoro-allyl]-5-oxo-1,2,4-triazol-4-yl]methyl]-2-thienyl]-2,2-dimethyl-4H-1,4-benzoxazin-3-one]: the half-inhibitory concentration (IC50) is more than 100000 nM in assay [1], 0.4 nM at recombinant human VAP-1, 200 nM in assay [2] and 530 nM in assay [3].

Regarding `NC/C(=C\F)Cn1ncn(Cc2ccc(C#Cc3cccc(N)c3)s2)c1=O` [Example 125, 2-[(2E)-2-(aminomethyl)-3-fluoroprop-2-en-1-yl]-4-(5-[(3-aminophenyl)ethynyl]thiophen-2-ylmethyl)-2,4-dihydro-3H-1,2,4-triazol-3-one hydrochloride], the IC50 in assay [1] is more than 100000 nM; at recombinant human VAP-1, 3.5 nM; in assay [2], 1600 nM; in assay [3], 2100 nM.

For the molecule `NC/C(=C\F)Cn1ncn(Cc2ccc(/C=C/c3ccc(O)cc3)s2)c1=O` [Example 116, 2-[(2E)-2-(aminomethyl)-3-fluoroprop-2-en-1-yl]-4-(5-[(E)-2-(4-hydroxyphenyl)ethenyl]thiophen-2-ylmethyl)-2,4-dihydro-3H-1,2,4-triazol-3-one hydrochloride], the IC50 in assay [1] amounted to 4400 nM; on recombinant human VAP-1 it was 0.6 nM; in assay [2], 1700 nM; in assay [3] it was 180 nM.

On to `CC(=O)c1ccc(-c2ccc(Cn3cnn(C/C(=C/F)CN)c3=O)s2)s1` [Example 155, 4-[(5′-acetyl-2,2′-bithiophen-5-yl)methyl]-2-[(2E)-2-(aminomethyl)-3-fluoroprop-2-en-1-yl]-2,4-dihydro-3H-1,2,4-triazol-3-one], for which the IC50 in assay [1] was more than 100000 nM; at recombinant human VAP-1, 0.4 nM; in assay [2], 950 nM; in assay [3], 470 nM.

For the molecule `NC/C(=C\F)Cn1ncn(Cc2ccc(/C=C/c3cnc4c(c3)NC(=O)CO4)s2)c1=O` [Example 124, 7-[(E)-2-[5-[[1-[(E)-2-(aminomethyl)-3-fluoro-allyl]-5-oxo-1,2,4-triazol-4-yl]methyl]-2-thienyl]vinyl]-1H-pyrido[2,3-b][1,4]oxazin-2-one hydrochloride], the IC50 in assay [1] was more than 100000 nM; at recombinant human VAP-1, 0.1 nM; in assay [2], 270 nM; in assay [3], 5100 nM.

In the case of `NC/C(=C\F)Cn1ncn(Cc2ccc(-c3ccc4c(c3)COC4)s2)c1=O` [Example 193, 2-[(2E)-2-(aminomethyl)-3-fluoroprop-2-en-1-yl]-4-{[5-(1,3-dihydro-2-benzofuran-5-yl)thiophen-2-yl]methyl}-2,4-dihydro-3H-1,2,4-triazol-3-one], the IC50 in assay [1] is more than 100000 nM; on recombinant human VAP-1, 1 nM; in assay [2], 2000 nM; in assay [3], 85 nM.

As to `Cn1cc(C#Cc2ccc(Cn3cnn(C/C(=C/F)CN)c3=O)s2)cn1` [Example 131, 2-[(2E)-2-(aminomethyl)-3-fluoroprop-2-en-1-yl]-4-(5-[(1-methyl-1H-pyrazol-4-yl)ethynyl]thiophen-2-ylmethyl)-2,4-dihydro-3H-1,2,4-triazol-3-one hydrochloride], the half-maximal inhibitory concentration (IC50) in assay [1] is more than 100000 nM; at recombinant human VAP-1, 2.3 nM; in assay [2] it was 1300 nM; in assay [3], 240 nM.

On to `CC(=O)c1ccc(-c2ccc(Cn3cnn(C/C(=C/F)CN)c3=O)s2)cc1` [Example 180, 4-{[5-(4-acetylphenyl)thiophen-2-yl]methyl}-2-[(2E)-2-(aminomethyl)-3-fluoroprop-2-en-1-yl]-2,4-dihydro-3H-1,2,4-triazol-3-one], for which the IC50 in assay [1] was more than 100000 nM; at recombinant human VAP-1, 0.9 nM; in assay [2] it was 1200 nM; in assay [3], 410 nM.
